From US20220160815A1, “PEPTIDES AND USES THEREOF” (LATERAL IP PTY LTD, priority 2019, published 2022)
Several values for one entry are separate records, joined by “and”; a condition that tells them apart may be missing. Equal values may be shown once.

Key:
Assay type in all cases: in vivo, human
migraine headache = experiment: Randomised, placebo-controlled, double-blind, crossover proof of concept study of oral LAT8881 in acute migraine headache; settings: 60 mg oral
Description: The primary objective of this study was to evaluate the effect of oral LAT8881 on migraine headache compared with placebo, when assessed by the headache severity on an 11-point Numeric Rating Scale (NRS).
The secondary objectives of this study included: • a) to evaluate the effect of oral LAT8881 on migraine-associated symptoms compared with placebo, when assessed by the change in symptoms based on a 11-point Likert scale; • b) to investigate the percentage of subjects achieving “no headache pain” following treatment with oral LAT8881 compared with placebo at any time-point to 8 hours post dose, with no use of rescue medication; and • c) to evaluate the safety and tolerability of single doses of oral LAT8881 in subjects with migraine headache.
This was a randomised, placebo-controlled, double-blind, crossover, Phase Ha proof of concept study to investigate the efficacy and safety of oral LAT8881 (SEQ ID NO:2) in acute migraine headache with or without aura.
Subjects entered into the study were randomised to receive IMP (LAT8881; 60 mg or placebo), taken at the onset (within one hour from the onset of pain) of a migraine headache of moderate to severe intensity [Numeric rating scale (NRS)≥4]. Subjects were advised not to take rescue medication until at least 2 hours post dose with LAT8881. Subjects were given one dose of IMP (2 capsules), to treat one migraine headache.
After treatment of one migraine headache (or a maximum 28 days), the subject was asked to return to the clinic for re-evaluation and crossover to the second treatment. In the second treatment period, subjects were asked to take IMP in the same manner as in treatment period 1.
Subjects entered into the study were randomised to receive IMP (LAT8881; 60 mg or placebo; orally), to be taken at the onset (within one hour from the onset of pain) of a migraine headache of moderate to severe intensity.
Primary efficacy endpoints included a change in migraine headache pain score, using an 11-point NRS, (0=none, 10=worst imaginable), from the time of dosing to 0.5, 1.0, 1.5, 2, 4, 8 and 24 hours post dose. Pain was recorded in the subject' diary and was expected to reflect the subject's pain at the time of recording.
Secondary efficacy endpoints included: • a) Change in migraine-associated symptoms of nausea, photophobia and phonophobia. Symptoms were assessed on an 11-point Likert scale with 0=no symptoms and 10 being severe symptoms at time of dosing and at 0.5, 1.0, 1.5, 2, 4, 8 and 24 hours post dose; • b) Change in each subject's most troublesome symptom that may include nausea, photophobia and phonophobia cognitive impairment, dizziness and functional disability. Symptoms were assessed on an 11-point Likert scale with 0=no symptoms and 10 being severe symptoms at time of dosing and at 0.5, 1.0, 1.5, 2, 4, 8 and 24 hours post dose; and • c) The percentage of subjects achieving “no headache pain” at 0.5, 1.0, 1.5, 2, 4 and 8 hours post dose.
Post-hoc analyses were undertaken to assess the responder rate at each time point after dose of IMP. Two classifications of responder were defined: at least 30% change from baseline in NRS score and an NRS score of less than or equal to 3 at the post dose time points. After unblinding, it was discovered that one subject had recorded a pre-dose NRS score of 2 in period 1, a major protocol deviation as the instructions were to take IMP within one hour of the onset of a migraine headache of moderate to severe intensity (NRS>=4). This subject's data for this period was excluded. The responder rate for each treatment and difference between LAT8881 and placebo (95% confidence interval) at each time point are provided in Table 2, below (P1=Period 1; P2=Period 2; Photo=Photophobia; Phono=Phonophobia). FIGS. 1-4 show selected examples of NSR Pain Scores of subjects that completed the study and who received treatment with either placebo or with LAT8881 (SEQ ID NO:2; 60 mg per dose, orally).

migraine [1] = experiment: Case study 4: LAT8881 injected into the right greater occipital nerve during a migraine attack; settings: 0.4 mg injected into right greater occipital nerve
Procedure: The subject was a person that suffers from migraines and occipital neuralgia. The subject presented with bilateral tenderness of both occipital nerve sites and bilateral headaches, bitemporally and behind the eyes, all indicative of a migraine attack.
Dosage: 0.4 mg of LAT8881 (SEQ ID NO:2) injected into the right greater occipital nerve.

migraine [2] = experiment: Case studies 1-3: oral LAT8881 capsules taken during a migraine attack, self-rated pain and nausea
[3] = 2 subjects menstruating at the time of the migraine, NRS pain score
[4] = of the 15 subjects who completed the study
[5] = subjects who showed a benefit, NRS pain score
[6] = subjects who were slightly worse, NRS pain score
[7] = Case Study 2, 1 mg, 4 hours after dosing, 8 out of 10 at time of dosing

YLRIVQCRSVEGSCGF (listed as Homo sapiens) [LAT8881, C-terminal fragment of human growth hormone (hGH) spanning amino acid residues 178-192, with an additional tyrosine residue at the N-terminus]
average score reduction in menstruating subjects (migraine headache; [3]): 6
range of score reduction in menstruating subjects (migraine headache; [3]): 10 to 2
Nausea change 2 hrs LAT8881 (migraine headache; 11-point Likert scale, individual subjects): 0 (2×) and −5 (2×) and −10 and 1 and −1 (4×) and −2 (2×) and 2 and −8 and 3 and −3 and 6
LAT8881 pain score at 2 hours (migraine headache; 11-point NRS (0=none, 10=worst imaginable), individual subjects): 2 and 1 and 0 and 5 (2×) and 8 (3×) and 6 (4×) and 3 (2×) and 4 and 7 and 9
Responder rate (95% CI), 30% change from baseline (migraine headache; 30 minutes post dose): 0
Responder rate (95% CI), NRS Score <= 3 (migraine headache; 30 minutes post dose): 0
Count/Total, NRS Score <= 3 (migraine headache; 30 minutes post dose, responder = NRS score of less than or equal to 3): 0/16
Count/Total, 30% change from baseline (migraine headache; 30 minutes post dose, responder = at least 30% change from baseline in NRS score): 0/16
Count/Total, 30% change from baseline (migraine headache; 1 hour post dose): 2/16
Count/Total, NRS Score <= 3 (migraine headache; 1 hour post dose): 1/16
Responder rate (95% CI), 30% change from baseline (migraine headache; 1 hour post dose): 12.50
Responder rate (95% CI), 30% change from baseline, difference LAT8881 60 mg-Placebo (migraine headache; 1 hour post dose): 12.5 (−3.7, 28.7)
Responder rate (95% CI), NRS Score <= 3 (migraine headache; 1 hour post dose): 6.25
Responder rate (95% CI), NRS Score <= 3, difference LAT8881 60 mg-Placebo (migraine headache; 1 hour post dose): 0 (−16.77, 16.77)
Count/Total, 30% change from baseline (migraine headache; 1.5 hours post dose): 3/16
Count/Total, NRS Score <= 3 (migraine headache; 1.5 hours post dose): 3/16
Responder rate (95% CI), 30% change from baseline (migraine headache; 1.5 hours post dose): 18.75
Responder rate (95% CI), 30% change from baseline, difference LAT8881 60 mg-Placebo (migraine headache; 1.5 hours post dose): 12.5 (−10, 35)
Responder rate (95% CI), NRS Score <= 3 (migraine headache; 1.5 hours post dose): 18.75
Responder rate (95% CI), NRS Score <= 3, difference LAT8881 60 mg-Placebo (migraine headache; 1.5 hours post dose): 12.5 (−10, 35)
subjects menstruating at the time of the migraine who benefited (migraine headache; 2 hours): 2 out of 2
Count/Total, 30% change from baseline (migraine headache; 2 hours post dose): 8/16
Count/Total, NRS Score <= 3 (migraine headache; 2 hours post dose): 5/16
Responder rate (95% CI), 30% change from baseline (migraine headache; 2 hours post dose): 50.00
Responder rate (95% CI), 30% change from baseline, difference LAT8881 60 mg-Placebo (migraine headache; 2 hours post dose): 18.75 (−14.66, 52.16)
Responder rate (95% CI), NRS Score <= 3 (migraine headache; 2 hours post dose): 31.25
Responder rate (95% CI), NRS Score <= 3, difference LAT8881 60 mg-Placebo (migraine headache; 2 hours post dose): 25 (-0.62, 50.62)
Count/Total, 30% change from baseline (migraine headache; 4 hours post dose): 8/16
Count/Total, NRS Score <= 3 (migraine headache; 4 hours post dose): 5/16
Responder rate (95% CI), 30% change from baseline (migraine headache; 4 hours post dose): 50.00
Responder rate (95% CI), 30% change from baseline, difference LAT8881 60 mg-Placebo (migraine headache; 4 hours post dose): 0 (−34.65, 34.65)
Responder rate (95% CI), NRS Score <= 3 (migraine headache; 4 hours post dose): 31.25
Responder rate (95% CI), NRS Score <= 3, difference LAT8881 60 mg-Placebo (migraine headache; 4 hours post dose): −6.25 (-39.09, 26.59)
Count/Total, 30% change from baseline (migraine headache; 8 hours post dose): 14/16
Count/Total, NRS Score <= 3 (migraine headache; 8 hours post dose): 13/16
Responder rate (95% CI), 30% change from baseline (migraine headache; 8 hours post dose): 87.50
Responder rate (95% CI), 30% change from baseline, difference LAT8881 60 mg-Placebo (migraine headache; 8 hours post dose): 25 (−3.73, 53.73)
Responder rate (95% CI), NRS Score <= 3 (migraine headache; 8 hours post dose): 81.25
Responder rate (95% CI), NRS Score <= 3, difference LAT8881 60 mg-Placebo (migraine headache; 8 hours post dose): 25 (−5.93, 55.93)
Count/Total, 30% change from baseline (migraine headache; 24 hours post dose): 16/16
Count/Total, NRS Score <= 3 (migraine headache; 24 hours post dose): 15/16
Responder rate (95% CI), 30% change from baseline (migraine headache; 24 hours post dose): 100.00
Responder rate (95% CI), 30% change from baseline, difference LAT8881 60 mg-Placebo (migraine headache; 24 hours post dose): 12.5 (−3.7, 28.7)
Responder rate (95% CI), NRS Score <= 3 (migraine headache; 24 hours post dose): 93.75
Responder rate (95% CI), NRS Score <= 3, difference LAT8881 60 mg-Placebo (migraine headache; 24 hours post dose): 6.25 (−13.83, 26.33)
LAT8881 change from baseline (migraine headache; NRS pain score, predose to 2 hours, individual subjects): −3 (3×) and −5 and −10 and 1 (3×) and 2 (2×) and −4 (2×) and −2 (3×) and −1 and 0
Most Troublesome, change 2 hrs LAT8881 (migraine headache; most troublesome symptom, 11-point Likert scale, individual subjects): −5 (3×) and −10 and 3 (3×) and 0 (4×) and −4 and 1 and −2 (3×) and −1
number of subjects slightly worse at 2 hours (migraine headache; [4]): 5
number of subjects unchanged at 2 hours (migraine headache; [4]): 1
number of subjects whose pain had reduced to 3 or less after 2 hours (migraine headache; [4]): 4
number of subjects who showed a benefit at 2 hours (migraine headache; of the 15 subjects who completed the study, NRS pain score): 9
Phono change at 2 hrs LAT8881 (migraine headache; phonophobia, 11-point Likert scale, individual subjects): 0 (9×) and −7 and 4 and 2 (2×) and −4 and −1 and −2 and 3
Photo change at 2 hrs LAT8881 (migraine headache; photophobia, 11-point Likert scale, individual subjects): 0 (3×) and −2 (5×) and −7 and 1 (4×) and −6 (2×) and −4
pain score reduction in the subject menstruating at the time of each treatment (migraine headache; placebo led to an increase of 3 in the same subject): 2
median benefit at 2 hours (migraine headache; [5]): 3
range of benefit at 2 hours (migraine headache; [5]): 1-10
median increase at 2 hours (migraine headache; [6]): 2
range of increase at 2 hours (migraine headache; [6]): 1-2
migraine pain reported by subject (migraine [1]; Case Study 4, migraines and occipital neuralgia, within ten minutes): pain-free
other effects reported by subject (migraine [1]; Case Study 4): mental clarity and loss of brain fog
tenderness over the occipital nerve (migraine [1]; Case Study 4, within ten minutes, bilateral tenderness at presentation): no tenderness on either side over the occipital nerve
migraine pain rating (migraine [2]; Case Study 1, 1 mg (four 0.25 mg capsules), an hour after dosing, 8 out of 10 at time of dosing): 7 out of 10
nausea rating (migraine [2]; Case Study 1, 1 mg, 4 hours after dosing, 7 out of 10 at time of dosing): 3 out of 10
migraine pain rating (migraine [2]; Case Study 1, 1 mg, 4 hours after dosing, 8 out of 10 at time of dosing): 6 out of 10
nausea rating (migraine [2]; Case Study 1, 1 mg, an hour after dosing, 7 out of 10 at time of dosing): 5 out of 10
migraine recurrence after dosing (migraine [2]; Case Study 1, 1 mg, subject averages about one migraine per month): No migraine was reported in the following month
migraine pain rating (migraine [2]; Case Study 2, 1 mg (two 0.5 mg capsules), an hour after dosing, 8 out of 10 at time of dosing): 2 out of 10
migraine pain rating (migraine [2]; [7]): 1 out of 10
nausea rating (migraine [2]; [7]): 1 out of 10
nausea rating (migraine [2]; Case Study 2, 1 mg, an hour after dosing, 8 out of 10 at time of dosing): 2 out of 10
migraine recurrence after dosing (migraine [2]; Case Study 2, 1 mg, subject averages about two migraines per month): No migraines reported in the following two months
nausea rating (migraine [2]; Case Study 3, 0.5 mg, overnight, 0 out of 10 at time of dosing): 0 out of 10
migraine recurrence after dosing (migraine [2]; Case Study 3, 0.5 mg, subject has migraines once every 3-6 months): No migraines reported in the following three months
